Source: patent US9783547B2, “Water soluble 4-azapodophyllotoxin analogs” (CENTRE NATIONAL DE LA RECHERCHE SCIENTIFIQUE (CNRS), priority 2014, dated 2017)
Where two headings read alike, the source gives them in different places.

Assays:
human cancer cell lines = experiment: Cytotoxicity on the whole panel of human cancer cell lines (MTS); format: cell-based; details: all human cancer cell lines of Table 2; read-out: IC50 values, range over all cell lines
tubulin = experiment: Tubulin polymerization inhibition assay (DAPI fluorescence); format: biochemical; details: tubulin 1 mg/ml, DAPI; read-out: IPT (inhibition of tubulin polymerization) IC50
Description: Fluorescence was then read at the excitation wavelength of 360 nm and emission of 450 nm.

SF268 = experiment: Cytotoxicity assay for human cancer cells (MTS); format: cell-based; details: SF-268, SF268 brain glioma, 72 h, read-out: IC 50 value
Procedure: (§1) Human cells were grown in DMEM medium supplemented with 10% fetal calf serum (Invitrogen), in the presence of penicillin, streptomycin and amphotericin B (Fungizone) in 75 cm^2 flask under 5% CO2. Cells were plated in 96-well tissue culture microplates at a density of 650 cells/well in 200 μl medium and treated 24 h later with the compound dissolved in DMSO at concentrations ranging from 0.5-10 μM applied using an automated benchstation (Beckman Biomek 3000). Controls received the same volume of DMSO as the test wells (1% final concentration). After a 72 h exposure time, MTS reagent (Promega) was added and incubated for 3 h at 37° C. and the absorbance was read at 490 nm. Results are expressed as the inhibition of cell proliferation calculated as the ratio [(OD490 treated/OD490 control)×100].

A2780cis = experiment: Cytotoxicity assay for human cancer cells (MTS); format: cell-based; details: A2780cis ovarian carcinoma-cisplatin resistant, 72 h, read-out: IC 50 value
Procedure: as §1

HT29 = experiment: Cytotoxicity assay for human cancer cells (MTS); format: cell-based; details: HT-29, HT29 colorectal adenocarcinoma, 72 h, read-out: IC 50 value
Procedure: as §1

HepG2 = experiment: Cytotoxicity assay for human cancer cells (MTS); format: cell-based; details: HepG2 hepatocellular carcinoma, 72 h, read-out: IC 50 value
Procedure: as §1

LnaCap = experiment: Cytotoxicity assay for human cancer cells (MTS); format: cell-based
Procedure: as §1

KB = experiment: Cytotoxicity assay for human cancer cells (MTS); format: cell-based; details: KB epidermoid carcinoma, 72 h, read-out: IC 50 value
Procedure: as §1

EPC = experiment: Cytotoxicity assay for human cancer cells (MTS); format: cell-based
Procedure: as §1

A549 = experiment: Cytotoxicity assay for human cancer cells (MTS); format: cell-based; details: A549 lung carcinoma, 72 h, read-out: IC 50 value
Procedure: as §1

PC3 = experiment: Cytotoxicity assay for human cancer cells (MTS); format: cell-based
Procedure: as §1

MCF7R = experiment: Cytotoxicity assay for human cancer cells (MTS); format: cell-based; details: MCF7R breast ER+ (multidrug resistant), 72 h, read-out: IC 50 value
Procedure: as §1

MIA PaCa-2 = experiment: Cytotoxicity assay for human cancer cells (MTS); format: cell-based; details: MIA PaCa-2 pancreatic carcinoma, 72 h, read-out: IC 50 value
Procedure: as §1

HL60R = experiment: Cytotoxicity assay for human cancer cells (MTS); format: cell-based; details: HL60R acute promyelocytic leukemia-multidrug resistant, 72 h, read-out: IC 50 value
Procedure: as §1

MDA435 = experiment: Cytotoxicity assay for human cancer cells (MTS); format: cell-based; details: MDA435 breast ER− (highly metastatic to lungs), 72 h, read-out: IC 50 value
Procedure: as §1

HCT15 = experiment: Cytotoxicity assay for human cancer cells (MTS); format: cell-based; details: HCT-15, HCT15 colon adenocarcinoma, 72 h, read-out: IC 50 value
Procedure: as §1

OVCAR8 = experiment: Cytotoxicity assay for human cancer cells (MTS); format: cell-based; details: OVCAR-8, OVCAR8 ovarian adenocarcinoma, 72 h, read-out: IC 50 value
Procedure: as §1

MDA231 = experiment: Cytotoxicity assay for human cancer cells (MTS); format: cell-based; details: MDA-MB-231, MDA231 breast ER− (hormone independent), 72 h, read-out: IC 50 value
Procedure: as §1

HCT116 = experiment: Cytotoxicity assay for human cancer cells (MTS); format: cell-based; details: HCT-116, HCT116 colorectal carcinoma, 72 h, read-out: IC 50 value
Procedure: as §1

HL60 = experiment: Cytotoxicity assay for human cancer cells (MTS); format: cell-based; details: HL-60, HL60 acute promyelocytic leukemia, 72 h, read-out: IC 50 value
Procedure: as §1

MCF7 = experiment: Cytotoxicity assay for human cancer cells (MTS); format: cell-based; details: MCF7 breast ER+ (hormone dependent), 72 h, read-out: IC 50 value
Procedure: as §1

U87 = experiment: Cytotoxicity assay for human cancer cells (MTS); format: cell-based; details: U-87 MG, U87 brain glioblastoma, astrocytoma, 72 h, read-out: IC 50 value
Procedure: as §1

A2780 = experiment: Cytotoxicity assay for human cancer cells (MTS); format: cell-based; details: A2780 ovarian carcinoma, 72 h, read-out: IC 50 value
Procedure: as §1

U937 = experiment: Cytotoxicity assay for human cancer cells (MTS); format: cell-based; details: U-937, U937 histiocytic lymphoma, 72 h, read-out: IC 50 value
Procedure: as §1

K562 = experiment: Cytotoxicity assay for human cancer cells (MTS); format: cell-based; details: K562 chronic myelogenous leukemia, 72 h, read-out: IC 50 value
Procedure: as §1

SK-OV3 = experiment: Cytotoxicity assay for human cancer cells (MTS); format: cell-based; details: SK-OV-3, SK-OV3 ovarian adenocarcinoma, 72 h, read-out: IC 50 value
Procedure: as §1

COc1cc(Nc2c3c(nc4cc5c(cc24)OCO5)CCCC3=O)cc(OC)c1OC.Cl [SGR307.HCl, 6,7-(Methylenedioxy)-9-(3,4,5-trimethoxyphenylamino)-3,4-dihydroacridin-1(2H)-one, hydrochloride]
IC50 (human cancer cell lines): 30 to 380 nM
IC50 (tubulin): 1090 nM
IC50 (SF268): 150 nM
IC50 (A2780cis): 109 nM
IC50 (HT29): 129 nM
IC50 (HepG2): 139 nM
IC50 (LnaCap; LnaCap androgen-dependent prostate adenocarcinoma, value of running text, read-out: IC50): 330 to 380 nM
IC50 (LnaCap; LnaCap prostate adenocarcinoma (androgen dependent), 72 h, MTS, read-out: IC 50 value): 103 nM
IC50 (KB): 111 nM
IC50 (EPC; Homo sapiens, 72 h, EPC epithelioma (quiescent cell line), 72 h, MTS, read-out: IC 50 value): 237 nM
IC50 (EPC; Homo sapiens, quiescent cell line EPC, values of running text, read-out: IC50 values): 310 nM
IC50 (EPC; quiescent cell line EPC, values of running text, hydrochloride, read-out: IC50 values): 360 nM
IC50 (A549): 158 nM
IC50 (PC3; PC-3, PC3 androgen-independent prostate adenocarcinoma, value of running text, read-out: IC50): 120 to 130 nM
IC50 (PC3; PC-3, PC3 prostate adenocarcinoma (androgen independent), 72 h, MTS, read-out: IC 50 value): 98 nM
IC50 (MCF7R): 121 nM
IC50 (MIA PaCa-2): 109 nM
IC50 (HL60R): 164 nM
IC50 (MDA435): 124 nM
IC50 (HCT15): 91 nM
IC50 (OVCAR8): 138 nM
IC50 (MDA231): 79 nM
IC50 (HCT116): 68 nM
IC50 (HL60): 90 nM
IC50 (MCF7): 76 nM
IC50 (U87): 126 nM
IC50 (A2780): 99 nM
IC50 (U937): 121 nM
IC50 (K562): 83 nM
IC50 (SK-OV3): 112 nM
